The test system of one test is skin thickness. As to the kind of experiment: Skin thickness of hairless mice after chronic UV exposure. The following applies: hairless mice treated either before or after chronic UV exposure, vs non-treated mice. It is filed as in vivo. The source says:
Increased skin thickness may be associated with wrinkles, capillary dilation in skin and skin dryness, as well as actinic damage.

In the next test the test system is CPD+ve epidermal cells. As to the kind of experiment: Cyclobutane pyrimidine dimers (CPD) in UV-irradiated human skin. It is filed as in vivo. Particulars: human subject; equol treated skin post-UVR compared with vehicle-only treated skin. The source says:
The formation of CPD's, which occurs immediately on UV exposure (Viv Reeve, pers comm) would be unaffected by any therapeutic agent applied post-UVR. However, the rate of repair of CPDs might be increased by equol. If this occurred, fewer CPDs in equol treated skin compared with the number in vehicle-only treated skin would be observed. [drawing 5] Equol (CAS No. 531-95-3)

The source of these data is US20060153782A1, “Skin photoageing and actinic damage treatment” (Novogen Research Pty Ltd, priority 2002, published 2006).

Each structure is given as a SMILES string.

In the case of `Oc1ccc(C2=Cc3ccc(O)cc3OC2)cc1` [dehydroequol], the skin thickness result with skin thickness is reported as “decreased skin thickness”. Take `Oc1ccc(C2COc3cc(O)ccc3C2)cc1` (stereo not drawn) [equol, Equol]: in the test on CPD+ve epidermal cells, the “percentage of CPD+ve epidermal cells” value is reported as “lower percentage of CPD+ve epidermal cells”. Also, the skin thickness entry in the test with skin thickness is “decreased skin thickness”.
